Results reported in US10493087B2, “Sialylation-increasing therapies for diseases associated with oxidative stress” (THE UNITED STATES OF AMERICA, AS REPRESENTED BY THE …, priority 2015, dated 2019).

What was measured:
[1] = test system: heart tissue of GNE −/− mice; test: SNA lectin staining of heart sections (sialylation status); type: in vivo; settings: ~1 year old GNE −/− mice treated since age 10 weeks with 2 g/kg/day; vs untreated GNE −/− mice
Experimental: Mouse hearts or skeletal muscle (gluteus) were harvested and fixed in 4% paraformaldehyde for 48 hours at room temperature, dehydrated in 70% ethanol at 4° C., and paraffin-embedded for sectioning (Histoserv, Gaithersburg, Md.). Tissue sections (5 um) were stained with a variety of lectins, as previously described for mouse kidneys and muscle (Kakani et al., Am J Pathol 2012; 180: 1431-40; Niethamer et al., Mol Genet Metab 2012; 107: 748-55) as well as for GNE myopathy patients' muscle (Leoyklang et al., Biomarkers Med 2014; 8: 641-52). Lectin histochemistry was performed with fluorescein isothiocyanate (FITC) labeled lectins WGA and VVA from EY Laboratories (San Mateo, Calif.) and SNA from Vector Laboratories (Burlingame, Calif.). Each slide was also stained with the nuclear dye DAPI. Fluorescence imaging of multiple sections of heart per slide was performed under a Zeiss 510 META confocal laser-scanning microscope. All fluorescent images represent collapsed stacks of confocal Z-sections, imaged at 63× magnification.

[2] = test system: GNE myopathy mice skeletal muscle tissue; settings: cited from earlier work; for Hyposialylation of GNE myopathy mice skeletal muscle tissue: Niethamer et al., Mol Genet Metab 2012
GNE myopathy mice = settings: cited from earlier work; for Prevention of muscle disease in GNE myopathy mice: prophylactic, Malicdan et al., Nature Med 2009
GNE Myopathy myotubes [3] = test: Intracellular ROS (DCF fluorescence) in cultured myotubes; type: cell-based, mice; settings: GNE Myopathy myotubes treated with 5 mM for 72 h; mean±SEM; untreated 1113±30, littermate controls 115±15
Experimental: (§1) Cell cultures and myotubes analysis: Myocytes from Gne^−/−hGNED176V-Tg mice and littermate controls were proliferated in DMEM containing 20% fetal bovine serum and 1% chicken embryo extracts in a 5% CO2 and induced to differentiation in a serum free medium, OPTIPRO™ SFM (Gibco), to make the cells hyposialylated. Where indicated, myotubes were treated with 5 mM NeuAc (Japan Food and Liquor Alliance) or 5 mM NAC (Sigma) for 72 h.
For the analysis of intracellular ROS, a popular fluorescence-based probe, 2′,7′-dichlorodihydrofluorescein diacetate (DCFH-DA) (Wang et al., Free Radical Biology and Medicine. 1999; 27:612-616; Halliwell and Whiteman, Br J Pharmacol. 2004; 142:231-255) was used. Cells were loaded with 5 μM DCFH-DA (Invitrogen) in PBS for an hour and recovered with phenol red-free DMEM (Gibco) for 30 min at 37° C. in a 5% CO2 incubator. Then the cells were placed in a CYTOFLUOR® Series 4000 multi-well fluorescence plate reader (PerSeptive Biosystems) with temperature maintained at 37° C. The excitation filter was set at 485 nm and the emission filter was set at 530 nm. The fluorescence from each well was captured and recorded.

GNE Myopathy myotubes [4] = test: ROS generation under pro-oxidants (H2O2 or menadione), ΔDCF fluorescence; type: cell-based, mice; settings: GNE Myopathy myotubes incubated before and during exposure to H2O2 and menadione; vs untreated; p<0.01
Experimental: as §1
To evaluate the ROS generation under pro-oxidants, myotubes cultured in each condition were loaded with 5 μM DCFH-DA for 1 h and recovered in the different concentrations of H2O2 or menadione-containing medium. After 30 min incubation in dark at 37° C., the microplate containing cells with pro-oxidants were placed in a plate reader and fluorescence was captured at every 5 min until it reached a plateau. Maximum fluorescence of each well was used for analysis.

GNE Myopathy myotubes [5] = test: Cell viability assay under pro-oxidants (propidium iodide/Hoechst co-staining); type: cell-based, mice; settings: treated GNE Myopathy myotubes vs untreated; same concentrations of H2O2 or menadione
Experimental: as §1
For the cell viability assay, myotubes were exposed to H2O2 for 24 h and to menadione for 6 h before staining. Nuclear staining with Hoechst 33342 (Thermo Scientific) and propidium iodide (PI) (Dojindo) was used for morphological assessment of apoptosis by fluorescence microscopy (Lee and Shacter, Journal of Biological Chemistry. 1999; 274:19792-19798). Minimum 200 nuclei were counted and cell viability was calculated by the exclusion of PI-stained nuclei from Hoechst 33342-stained nuclei.

Row | Molecule | Sialylation of glycans in heart tissue (SNA lectin staining) [1] | Hyposialylation of GNE myopathy mice skeletal muscle tissue [2] | Sialylation status of skeletal muscle (SNA and VVA signal) ([2]; oral 1 g/kg/day for 12 weeks, gastrocnemius, adapted from Niethamer et al., 2012) | Prevention of muscle disease in GNE myopathy mice (GNE myopathy mice) | Mean DCF fluorescence (intracellular ROS generation) (GNE Myopathy myotubes [3]) | ΔDCF fluorescence increments on exposure to pro-oxidants (GNE Myopathy myotubes [4]) | Relative cell viability under pro-oxidants (GNE Myopathy myotubes [5]) | Muscle force generation in treated mice (GNE myopathy mice; sialic acid supplement, Malicdan et al. 2009, 2008)
1 | CC(=O)NC1C(O)[C@H](O)C(CO)O[C@H]1O (stereo partly shown) [ManNAc, N-acetyl mannosamine] | significantly increased sialylation | rescue hyposialylation | restored the sialylation status back to the normal range | prophylactically prevent muscle disease |  |  |  | 
2 | CC(=O)N[C@H]1[C@H]([C@H](O)[C@H](O)CO)OC(O)(C(=O)O)C[C@@H]1O (stereo partly shown) [NeuAc, N-acetyl neuraminic acid] | significantly increased sialylation | rescue hyposialylation |  | prophylactically prevent muscle disease | 349±19 AFU | significantly decreased | more resistant | increased in proportion to muscle fiber diameter
3 | N[C@@H]1C(O)O[C@H](CO)[C@@H](O)[C@@H]1O (stereo partly shown) [mannosamine] |  | rescue hyposialylation |  |  |  |  |  | 
4 | sialyllactose |  |  |  | prophylactically prevent muscle disease |  |  |  | 
